Measured values: patent US20240299354A1, “COMPOSITIONS AND METHODS FOR TREATING CANCER” (The Regents of the University of Michigan, priority 2021, published 2024)

Experiments:
T47D cells = assay: perforin and granzyme B-induced tumor cell death; format: cell-based, human; conditions: FOXO1 knocked down T47D cells, FIG. 4h
Protocol: Tumor cells were exposed to hypoxia for 24 hours, or the indicated conditions. Then, tumor cells were co-incubated with perform (APB317Hu01, Cloud-Clone) and granzyme B (2906-SE-010, R&D system) for 10 minutes. PI (10 μg/ml) was added into the culture. PI^+ cells were measured by flow cytometry.

4T1 tumors [1] = assay: therapeutic experiments in 4T1 tumor bearing BALB/cJ mice (tumor volume, tumor weight); format: in vivo, mouse; conditions: anti-PD-L1 and combination experiment
Protocol: Six to eight week-old female BALB/cJ mice were purchased from The Jackson Laboratory. The work was approved by the Institutional Animal Care and Use Committee at the University of Michigan. Slc6a14^−/− and Slc6a14^+/+ 4T1 tumor cells were inoculated into the fourth right mammary fat pad of BALB/cJ mice. Tumor size was measured every three days using calipers fitted with Vernier scale. Tumor volume (TV) was calculated using the formula: TV=0.5×L×W^2. In some cases, single cell suspensions were made from spleen and tumor tissues for immune phenotype and function analysis.
(§1) For the therapeutic experiments, 2*10^4 4T1 cells were inoculated into the fourth right mammary fat pad of BALB/cJ mice. On day 3, mice were treated (i.p.) with 200 μg of anti-PD-L1 (Bio X Cell) every 3 days, and/or with 250 μg of 4-HAP (i.p., 278564, Sigma) every other day, and/or α-MT (2 mg/mL, M8377, Sigma) in drinking water. Tumor diameters were measured using calipers.

tumor cells [2] = assay: tumor receptivity to CTL-killing in vitro; format: cell-based; conditions: FIG. 9g as printed
tumor cells [3] = conditions: reference 46; cited from earlier work
4T1 cells = assay: 4T1 cell stiffness in vitro, Optical Tweezers Microscopy; format: cell-based, mouse; conditions: FIG. 8c
Protocol: OTM was established to measure tumor cell stiffness. A modular OTM (Thorlabs—OKBT) was adapted for axial cell indentation and force measurement. Briefly, a collimated laser beam (YLM-5-IPG Photonics—Yb fiber laser 1064 nm) was focused through a 100× objective (Nikon, N.A.=1.25, oil immersion) to produce a stable optical trap for 3 μm diameter silica microbeads (Bangs Laboratories) dispersed in the medium. During data acquisition, the cells were maintained at 37° C. by an integrated temperature controller unit (RS Components). The sample was imaged through the trapping objective and a tube lens by a CMOS camera (Thorlabs—DCC1240C). A microbead probe was individually trapped and positioned above the cell nucleus area of a selected cell using a piezoelectric NanoMax 3-axis flexure stage (Thorlabs). The position of the microbead in the trap was tracked by back focal plane interferometry method using the laser light scattered by the trapped bead. The trap height was in the range 3-6 μm from the cover-slip. The trap stiffness was calculated using the equipartition theorem and the power spectrum density methods considering the stiffness variations due to spherical aberrations and neighborhood of the cover-slip. […] Tumor cell stiffness was determined and expressed as […] per site. At least 15 cells per condition were analyzed.

4T1 tumors [4] = assay: Myh9 and Mylk expression in 4T1 tumors of treated mice (real-time PCR, immunoblots); design: species or system mouse; conditions: in vivo, α-MT in drinking water
Protocol: as §1
Total RNA was extracted using TRIzol™ Reagent (ThermoFisher Scientific, USA). RNA was quantified by using NanoDrop spectrophotometer. Reverse transcription of the total cellular RNA was carried out using oligo (dT) primers and M-MLV reverse transcriptase (ThermoFisher Scientific, USA). RT-PCR primers are listed (Table 6). PCR was performed using QuantStudio 3 Real-time PCR system (Appliedbiosystems, Thermo Fisher Scientific, USA).
Cell lysates were prepared in RIPA buffer (Thermo Fisher Scientific, USA). The protein concentrations of cell lysates were determined by BCA protein assay kit (Thermo Scientific, USA). Equivalent amounts of total cellular protein were separated by SDS PAGE and transferred to PVDF membranes. The proteins were detected with specific antibodies (Table 7) and developed using ChemiDoc™ Imaging System (Bio-Rad, USA).

4T1 tumors [5] = assay: tumor stiffness in vivo by atomic force microscopy; design: species or system mouse; conditions: FIG. 5f
Protocol: as §1
AFM was used to measure tumor tissue stiffness in vivo. MFP-3D AFM (Asylum Research, Santa Barbara, CA) combined with a Nikon Ti inverted optical microscope (Nikon, Melville, NY) was used to optically align the probe to the cells. The probes used in this study were MCST-AUHW (Bruker, Camarillo, CA) with a nominal spring constant of 0.03 N/m. […] To eliminate the confounding effects of neighboring cells on cytoskeleton arrangement and morphology, single cells were measured.
For in vivo tumor cell stiffness detection, fresh tumor tissues were excised and prepared immediately as frozen slices. […] The deflection sensitivity was determined in fluid using glass substrates as an infinitely stiff reference material. AFM at room temperature involved recording up to 6×6 point grids (36 force-displacement curves per map) was recorded. […] Force curves were analyzed using the Oliver and Pharr method. Tumor stiffness was determined and expressed as log 10 (pascal) per site. At least 24 sites per tumor tissue were analyzed.

SLC6A14 = target: T1, SLC6A14 (Homo sapiens, UniProt Q9UN76); conditions: reference 41; cited from earlier work
T1 sequence (Q9UN76 1-642): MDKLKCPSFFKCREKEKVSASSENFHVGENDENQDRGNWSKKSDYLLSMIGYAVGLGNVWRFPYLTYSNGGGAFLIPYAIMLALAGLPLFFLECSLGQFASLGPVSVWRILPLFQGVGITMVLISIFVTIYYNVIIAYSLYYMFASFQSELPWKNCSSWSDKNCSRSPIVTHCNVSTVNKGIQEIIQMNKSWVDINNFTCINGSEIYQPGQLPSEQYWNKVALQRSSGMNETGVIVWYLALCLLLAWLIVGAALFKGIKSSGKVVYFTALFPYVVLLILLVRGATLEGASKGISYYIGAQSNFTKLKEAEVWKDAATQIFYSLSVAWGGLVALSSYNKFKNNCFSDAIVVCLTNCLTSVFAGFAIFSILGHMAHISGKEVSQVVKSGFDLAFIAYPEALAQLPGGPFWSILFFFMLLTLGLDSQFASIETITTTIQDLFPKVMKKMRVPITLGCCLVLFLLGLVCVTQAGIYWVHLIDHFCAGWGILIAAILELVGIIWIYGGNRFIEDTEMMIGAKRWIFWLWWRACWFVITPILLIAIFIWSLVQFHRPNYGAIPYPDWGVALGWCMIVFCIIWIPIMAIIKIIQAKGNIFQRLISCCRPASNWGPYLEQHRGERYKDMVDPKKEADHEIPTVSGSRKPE

| Compound | perforin and granzyme B-induced T47D cell death (T47D cells) | 4T1 tumor progression / tumor growth (4T1 tumors [1]; 4-HAP, tumor weights and volume, FIG. 5k-l) | tumor receptivity to CTL-killing (tumor cells [2]) | stiffening of tumor cells (tumor cells [3]) | 4T1 cell stiffness (4T1 cells) | levels of Myh9 and Mylk proteins in 4T1 tumors (4T1 tumors [4]; immunoblots, FIG. 5e) | levels of Myh9 and Mylk transcripts in 4T1 tumors (4T1 tumors [4]; real-time PCR, FIG. 5d) | 4T1 tumor cell stiffness in vivo (4T1 tumors [5]) | 4T1 tumor progression / tumor growth (4T1 tumors [1]; α-MT, tumor volumes and weight, FIG. 5i-j) | inhibition of SLC6A14 (SLC6A14) |
| --- | --- | --- | --- | --- | --- | --- | --- | --- | --- | --- |
| CC(=O)c1ccc(O)cc1 [4-HAP, 4′-Hydroxyacetophenone] | rescued | partially slowed down | promote | can stiffen tumor cells |  |  |  |  |  |  |
| CC(N)(Cc1c[nH]c2ccccc12)C(=O)O (racemic) [α-MT, α-methyl-DL-tryptophan] |  |  |  |  | enhanced | reduced levels | reduced levels | increased | partially and similarly slowed down | functionally inhibits |
